Patent US11013726B2 (Arbutus Biopharma Corporation, priority 2016, dated 2021)
Where a name gives a salt, the structure may show the parent alone.

Each molecule was assayed on HBsAg (assay: HBsAg assay). Conditions: Hepatitis B virus, HepG2.2.15, 144 h, read-out: sAg EC50, μM, HepG2.2.15 cells, day 6.
Assay type: cell-based, hepatitis B virus
Description: Inhibition of HBsAg was determined in HepG2.2.15 cells. Cells were maintained in culture medium containing 10% fetal calf serum, […], Glutamine, penicillin/streptomycin. Cells were seeded in 96-well collagen-coated plate at a density of 30,000 cells/well. Serially diluted compounds were added to cells next day at the final DMSO concentration of 0.5%. Cells were incubated with compounds for 2-3 days, after which medium was removed. Fresh medium containing compounds was added to cells for additional 3-4 days. At day 6 after exposure of compounds, supernatant was collected, the HBsAg immunoassay (microplate-based chemiluminescence immunoassay kits, CLIA, Autobio Diagnosics Co., Zhengzhou, China, Catalog # CL0310-2) was used to determine the level of HBsAg according to manufactory instruction. Dose-response curves were generated and the EC50 value (effective concentrations that achieved 50% inhibitory effect) were determined using XLfit software. In addition, cells were seeded at a density of 5,000 cells/well for determination of cell viability in the presence and absence of compounds by using CellTiter-Glo reagent (Promega). Tables 1-3 show EC50 values obtained by the HBsAg assay for selected compounds.

**Q.** Which EC50 does the source give for `CCc1cc2c(cc1OCCCOC)OC[C@@H](C(C)C)n1cc(C(=O)O)c(=O)cc1-2` [Example 47, (R)-2-Ethyl-7-isopropyl-3-(3-methoxypropoxy)-11-oxo-6,7-dihydro-11H-benzo[f]pyrido[1,2-d][1,4]oxazepine-10-carboxylic acid] here?
**A.** The EC50 was 0.006 µM.

**Q.** For `COCCCOc1cc2c(cc1C)-c1cc(=O)c(C(=O)O)cn1[C@H](C(C)C)CO2` [Example 46, (R)-7-Isopropyl-3-(3-methoxypropoxy)-2-methyl-11-oxo-6,7-dihydro-11H-benzo[f]pyrido[1,2-d][1,4]oxazepine-10-carboxylic acid], which EC50 is on record?
**A.** The EC50 was 0.039 µM.

**Q.** Which EC50 does the source give for `COCCCOc1cc2c(nc1OC)-c1cc3n[nH]c(=O)c-3cn1[C@H](C(C)C)C2` [Example 153, (S)-6-Isopropyl-2-methoxy-3-(3-methoxypropoxy)-5,10-dihydropyrazolo[3′,4′:4,5]pyrido[1,2-h][1,7]naphthyridin-9(6H)-one] here?
**A.** The EC50 was 0.23 µM.

**Q.** For `COCCCOc1cc2c(cc1Cl)-c1cc(=O)c(N)cn1C(C(C)(C)C)C2` (centres unmarked) [Example 120, 3-Amino-6-tert-butyl-10-chloro-9-(3-methoxypropoxy)-6H,7H-pyrido[2,1-a]isoquinolin-2-one hydrochloride], which EC50 is on record?
**A.** The EC50 was 3.9 µM.

**Q.** `COc1cc2c(n(C)c1=O)-c1cc(=O)c(C(=O)O)cn1[C@H](C(C)C)C2` [Example 165, (S)-6-Isopropyl-3-methoxy-1-methyl-2,10-dioxo-2,5,6,10-tetrahydro-1H-pyrido[1,2-h][1,7]naphthyridine-9-carboxylic acid] was tested. Which EC50 did it give?
**A.** Its EC50 is 4.3 µM.

**Q.** With `COc1cc2c(cc1Cl)-c1cc(=O)c(C(=O)O)cn1[C@H](C(C)C)CO2` (single isomer, unassigned) [Example 3] as the molecule, how does the EC50 read?
**A.** The EC50 was 0.032 µM.

**Q.** With `COCCCOc1cc2c(cc1Cl)-c1cc(=O)c(NC(C)=O)cn1C(C(C)(C)C)C2` (centres unmarked) [Example 121, N-[6-Tert-butyl-10-chloro-9-(3-methoxypropoxy)-2-oxo-6H,7H-pyrido[2,1-a]isoquinolin-3-yl]acetamide] as the molecule, how does the EC50 read?
**A.** Its EC50 is 8.6 µM.

**Q.** `COc1cc2c(cc1Cl)-c1cc(=O)c(C(=O)O)cn1C(CO)CO2` (centres unmarked) [Example 9] was tested. Which EC50 did it give?
**A.** Its EC50 is 8.6 µM.

**Q.** `COCCCOc1cc2c(cc1Cl)-c1cc(=O)c(NC(=O)OC)cn1C(C(C)(C)C)C2` (centres unmarked) [Example 122, Methyl N-[6-tert-butyl-10-chloro-9-(3-methoxypropoxy)-2-oxo-6H,7H-pyrido[2,1-a]isoquinolin-3-yl]carbamate] was tested. Which EC50 did it give?
**A.** Its EC50 is 17 µM.

**Q.** For `COCCCOc1cc2c(nc1OC)-c1cc(=O)c(C(=O)O)cn1C(C(C)C)C2` (centres unmarked) [Example 20, 6-Isopropyl-2-methoxy-3-(3-methoxypropoxy)-10-oxo-5,10-dihydro-6H-pyrido[1,2-h][1,7]naphthyridine-9-carboxylic acid], which EC50 is on record?
**A.** Its EC50 is 0.005 µM.

**Q.** With `CCOCCOc1cc2c(cc1C)-c1cc(=O)c(C(=O)O)cn1[C@H](C(C)C)CO2` [Example 55, (R)-3-(2-Ethoxyethoxy)-7-isopropyl-2-methyl-11-oxo-6,7-dihydro-11H-benzo[f]pyrido[1,2-d][1,4]oxazepine-10-carboxylic acid] as the molecule, how does the EC50 read?
**A.** The EC50 was 0.13 µM.

**Q.** How did the EC50 turn out when `COCCCOc1cc2c(nc1OC)-c1cc(=O)c(-c3nc(-c4ccccc4)no3)cn1[C@H](C(C)C)C2` [Example 112, (S)-6-Isopropyl-2-methoxy-3-(3-methoxypropoxy)-9-(3-phenyl-1,2,4-oxadiazol-5-yl)-5,6-dihydro-10H-pyrido[1,2-h][1,7]naphthyridin-10-one] was run?
**A.** Its EC50 is 0.87 µM.

**Q.** For `CC(C)C1Cc2sccc2-c2cc(=O)c(C(=O)O)cn21` (centres unmarked) [Example 84, 5-Isopropyl-9-oxo-4,9-dihydro-5H-thieno[3,2-a]quinolizine-8-carboxylic acid], which EC50 is on record?
**A.** Its EC50 is 3.2 µM.

**Q.** How did the EC50 turn out when `COCCCOc1cc2c(nc1Cl)-c1cc(=O)c(C(=O)O)cn1C1(COC1)CO2` [Example 71, 2-Chloro-3-(3-methoxypropoxy)-1-oxo-6H,11H-spiro[dipyrido[1,2-d:2′,3′-f][1,4]oxazepine-7,3′-oxetane]-10-carboxylic acid] was run?
**A.** The EC50 was 30 µM.

**Q.** With `CCOC(=O)c1cn2c(cc1=NO)-c1cc(Cl)c(OC)cc1OCC2C(C)C` (centres unmarked) [Example 150, Ethyl 2-chloro-11-(hydroxyimino)-7-isopropyl-3-methoxy-6,7-dihydro-11H-benzo[f]pyrido[1,2-d][1,4]oxazepine-10-carboxylate] as the molecule, how does the EC50 read?
**A.** Its EC50 is 24 µM.

**Q.** How did the EC50 turn out when `C=Cc1cc2c(cc1OCCCOC)OC[C@@H](C(C)C)n1cc(C(=O)O)c(=O)cc1-2` [Example 48, (R)-7-Isopropyl-3-(3-methoxypropoxy)-11-oxo-2-vinyl-6,7-dihydro-11H-benzo[f]pyrido[1,2-d][1,4]oxazepine-10-carboxylic acid] was run?
**A.** Its EC50 is 0.004 µM.

**Q.** For `COCCCOc1cc2c(cc1Cl)-c1cc(=O)c(C(=O)O)cn1[C@@H](C(C)C)CO2` [Example 28, (S)-2-Chloro-7-isopropyl-3-(3-methoxypropoxy)-11-oxo-6,7-dihydro-11H-benzo[f]pyrido[1,2-d][1,4]oxazepine-10-carboxylic acid], which EC50 is on record?
**A.** Its EC50 is 0.46 µM.

**Q.** With `COc1cc2c(cc1Cl)-c1cc(=O)c(C(=O)O)cn1CC(C(C)(C)C)O2` (centres unmarked) [Example 12, 6-(Tert-butyl)-2-chloro-3-methoxy-11-oxo-6,7-dihydro-11H-benzo[f]pyrido[1,2-d][1,4]oxazepine-10-carboxylic acid] as the molecule, how does the EC50 read?
**A.** Its EC50 is 47 µM.

**Q.** With `COCCCOc1cc2c(cc1Cl)-c1cc(=O)c(NC(=O)OC(C)(C)C)cn1[C@H](C(C)C)CO2` [Example 134, Tert-butyl (R)-(2-chloro-7-isopropyl-3-(3-methoxypropoxy)-11-oxo-6,7-dihydro-11H-benzo[f]pyrido[1,2-d][1,4]oxazepin-10-yl)carbamate] as the molecule, how does the EC50 read?
**A.** The EC50 was 45 µM.

**Q.** How did the EC50 turn out when `COCCCOc1cc2c(cc1Cl)-c1cc3noc(=O)c-3cn1C(C(C)(C)C)C2` (centres unmarked) [Example 146, 6-(Tert-butyl)-2-chloro-3-(3-methoxypropoxy)-5,6-dihydro-9H-isoxazolo[3′,4′:4,5]pyrido[2,1-a]isoquinolin-9-one] was run?
**A.** Its EC50 is 0.031 µM.

**Q.** Which EC50 does the source give for `COCCCOc1cc2c(nc1OC)-c1cc(=O)c(C(=O)NS(C)(=O)=O)cn1[C@H](C(C)C)C2` [Example 118, (S)-6-Isopropyl-2-methoxy-3-(3-methoxypropoxy)-N-(methylsulfonyl)-10-oxo-5,10-dihydro-6H-pyrido[1,2-h][1,7]naphthyridine-9-carboxamide] here?
**A.** The EC50 was 0.051 µM.

**Q.** For `C=C1COc2cc3c(cc2OC1)-c1cc(=O)c(CO)cn1C(C(C)(C)C)C3` (centres unmarked) [Example 101, 6-(Tert-butyl)-3-(hydroxymethyl)-1-methylene-6,7,11,12-tetrahydro-2H,10H-[1,4]dioxepino[2,3-g]pyrido[2,1-a]isoquinolin-2-one], which EC50 is on record?
**A.** The EC50 was 5.8 µM.

**Q.** `CCOC(=O)c1cn2c(cc1=O)-c1nc(OC)ccc1[C@H]2C(C)C` [Example 173, (R)-ethyl-5-isopropyl-2-methoxy-9-oxo-5,9-dihydropyrido[2,3-a]indolizine-8-carboxylate] was tested. Which EC50 did it give?
**A.** Its EC50 is 8.6 µM.

**Q.** `COCCCOc1cc2c(nc1OC)-c1cc(=O)c(C(=O)O)cn1[C@@H](C(C)C)C2` (single isomer, unassigned) [Example 21] was tested. Which EC50 did it give?
**A.** The EC50 was 0.53 µM.

**Q.** How did the EC50 turn out when `COc1cc2c(nc1Cl)-c1cc(=O)c(C(=O)O)cn1[C@H](C(C)C)CO2` [Example 75, (R)-2-Chloro-7-isopropyl-3-methoxy-11-oxo-6,7-dihydro-11H-dipyrido[1,2-d:2′,3′-f][1,4]oxazepine-10-carboxylic acid] was run?
**A.** The EC50 was 0.026 µM.

**Q.** For `COCCCOc1cc2c(nc1OC)-c1cc(=O)c(-c3nnn[nH]3)cn1[C@H](C(C)C)C2` [Example 115, (S)-6-Isopropyl-2-methoxy-3-(3-methoxypropoxy)-9-(1H-tetrazol-5-yl)-5,6-dihydro-10H-pyrido[1,2-h][1,7]naphthyridin-10-one], which EC50 is on record?
**A.** Its EC50 is 0.09 µM.

**Q.** Which EC50 does the source give for `COCCNc1cc2c(cc1Cl)-c1cc(=O)c(C(=O)O)cn1[C@H](C(C)C)CO2` [Example 64, (R)-2-Chloro-7-isopropyl-3-((2-methoxyethyl)amino)-11-oxo-6,7-dihydro-11H-benzo[f]pyrido[1,2-d][1,4]oxazepine-10-carboxylic acid] here?
**A.** Its EC50 is 0.066 µM.

**Q.** How did the EC50 turn out when `COCCCOc1cc2c(cc1Cl)-c1cc(=O)c(-c3ccccn3)cn1[C@H](C(C)C)CO2` [Example 138, (R)-2-Chloro-7-isopropyl-3-(3-methoxypropoxy)-10-(pyridin-2-yl)-6,7-dihydro-11H-benzo[f]pyrido[1,2-d][1,4]oxazepin-11-one] was run?
**A.** Its EC50 is 12 µM.

**Q.** With `COCCCOc1cc2c(nc1OC)-c1cc(=O)c(C(=O)O)cn1C(C)(C(C)C)C2` (centres unmarked) [Example 155, 6-Isopropyl-2-methoxy-3-(3-methoxypropoxy)-6-methyl-10-oxo-5,10-dihydro-6H-pyrido[1,2-h][1,7]naphthyridine-9-carboxylic acid] as the molecule, how does the EC50 read?
**A.** Its EC50 is 0.002 µM.

**Q.** With `CCC1COc2cc(OC)c(Cl)cc2-c2cc(=O)c(C(=O)O)cn21` (centres unmarked) [Example 8, 2-Chloro-7-ethyl-3-methoxy-11-oxo-6,7-dihydro-11H-benzo[f]pyrido[1,2-d][1,4]oxazepine-10-carboxylic acid] as the molecule, how does the EC50 read?
**A.** The EC50 was 0.42 µM.

Same assay, conditions: read-out: sAg EC50; HepG2.2.15 cells, day 6

**Q.** For `CC(C)(C)C1Cc2cc3c(cc2-c2cc(=O)c(C(=O)O)cn21)OCC1(COC1)CO3` (single isomer, unassigned) [Example 95, 6′-(Tert-butyl)-2′-oxo-6′,7′-dihydro-2′H,10′H,12′H-spiro[oxetane-3,11′-[1,4]dioxepino[2,3-g]pyrido[2,1-a]isoquinoline]-3′-carboxylic acid], which EC50 is on record?
**A.** The EC50 was 0.08 µM.

**Q.** Which EC50 does the source give for `COc1cc2c(nc1OC)-c1cc(=O)c(C(=O)O)cn1C(C(C)C)C2` (single isomer, unassigned) [Example 24, 6-Isopropyl-2,3-dimethoxy-10-oxo-5,10-dihydro-6H-pyrido[1,2-h][1,7]naphthyridine-9-carboxylic acid] here?
**A.** The EC50 was 0.25 µM.
